The structures appear in SMILES notation.

This note sets out measurements from US7129381B2, “Glucopyranosyloxybenzylbenzene derivatives, medicinal compositions containing the same and intermediates in the production thereof” (Kissei Pharmaceutical Co., Ltd., priority 2000, dated 2006).

For this series, the system named is ICR mice. As to the kind of experiment: Acute toxicity test. It is filed as in vivo. Particulars: 300 mg/kg subcutaneous, male ICR mice, 5 animals, observation for 24 hours. As for the experimental part: A mixture (saline:polyethylene glycol 400:ethanol =5:4:1) was added to a test compound to prepare 30 mg/mL solution. As experimental animals, 5 week old male ICR mice (CLEA JAPAN, INC. 29–35 g, 5 animals in each group), which were fasted for 4 hours, were used. The above solution was subcutaneously administered at a dose of 10 mL/kg (300 mg/kg) to the above experimental animals and then observation for 24 hours was performed.

For the compound `COc1ccc(Cc2c(C)cc(C)cc2O[C@@H]2O[C@H](CO)[C@@H](O)[C@H](O)[C@H]2O)cc1` [Example 37, 2-(4-Methoxybenzyl)-3,5-dimethylphenyl β-D-glucopyranoside], the Death number is 0/5.
